Among the test systems are NCI-H226; A549; NCI-H460; KM12; SF-295; Malme-3M; MDA-MB-231; RPMI-8226; MDA-MB-435; HOP-62; NCI/ADR-RES; LOX IMVI; COLO 205; LXFL 529; A498; HL-60; HCT-15; SN12C; TK-10; HOP-92.
Common to all, as to assay: DTP human tumour cell line panel, 48 h

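A five-concentration, 48-hour dose response in 96-well plates underlies each endpoint, interpolated linearly between surrounding concentrations. GI50 = concentration required for 50% inhibition of growth.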 The source made the active and inactive calls. Rule as the data show it: active = GI50 up to about 1.1 µM and inactive = higher.

The term GI50 denotes the concentration at which growth is held to half of that of the control. In the case of `CCCCCCN(CCCCCC)C(=S)N/N=C(\C)c1ccccn1`, the concentration for 50% growth inhibition (GI50) was 622 nM (active) in the assay with NCI-H226; 1520 nM (inactive) with A549; 1090 nM (active) with NCI-H460; 1050 nM (active) in the assay on KM12; 1530 nM (inactive) in the assay on SF-295; 1340 nM (inactive) with Malme-3M. Also, the GI50 with MDA-MB-231 is 1150 nM (inactive); with RPMI-8226, 117 nM (active); in the assay on MDA-MB-435 it was 708 nM (active); in the assay with HOP-62, 1210 nM (inactive); in the assay with NCI/ADR-RES, 1370 nM (inactive); in the assay with LOX IMVI it was 838 nM (active). Moreover, the GI50 was 321 nM (active) with COLO 205; 208 nM (active) in the assay with LXFL 529; 1860 nM (inactive) in the assay on A498; 76.7 nM (active) in the assay with HL-60; 581 nM in the assay with HCT-15; 957 nM (active) in the assay on SN12C. For the same compound, the GI50 was 993 nM (active) in the assay with TK-10 and 906 nM (active) in the assay with HOP-92.
